Results: paper PMC6106931 (Alzheimer's Research & Therapy, 2018)

Test: Clinical safety, Study ALZ1005
Format: in vivo, human
[1] = MCI due to AD, JNJ-54861911 total, N=20
[2] = both atabecestat groups, 3 of 31 patients
[3] = preclinical AD, JNJ-54861911 total, N=11

Protocol: Safety and tolerability were assessed during the study by recording adverse events (AEs), clinically significant abnormalities, clinical laboratory tests, ECG, and vital signs and by performing physical, neurological, and MRI examinations. All enrolled participants were included in the safety analysis population.

With `C[C@@]1(c2cc(NC(=O)c3ccc(C#N)cn3)ccc2F)C=CSC(N)=N1` [atabecestat] the “TEAE: Psoriasis” value [1] was “^0 n (%)”, the “TEAE: Psychiatric disorders” value [1] was “^2 (10.0) n (%)” and the “TEAE: Renal and urinary disorders” value [1] was “^1 (5.0) n (%)”. For the same compound, the “TEAE: Renal colic” value [1] was “^1 (5.0) n (%)”, the “TEAE: Reproductive system and breast disorders” value [1] was “^1 (5.0) n (%)” and the “TEAE: Skin and subcutaneous tissue disorders” value [1] was “^2 (10.0) n (%)”. The “TEAE: Somnolence” value [1] was “^0 n (%)”, the “TEAE: Syncope” value [1] was “^0 n (%)” and the “TEAE: Urticaria” value [1] was “^0 n (%)”. For the same compound, the “TEAE: Vascular disorders” value [1] was “^0 n (%)”, the “TEAE: Vulvovaginal candidiasis” value [1] was “^1 (5.0) n (%)” and the “TEAE: Vulvovaginal pruritus” value [1] was “^1 (5.0) n (%)”. The TEAE accidental overdose (both atabecestat groups, 2 patients) was 6.5%, the TEAE psychiatric disorders [2] was 9.7% and the “TEAE skin and subcutaneous tissue disorders” value [2] was 9.7%. The “TEAE post-lumbar puncture syndrome” value (both atabecestat groups, 4 patients) was 12.9%, the “TEAE SOC injury, poisoning, and procedural complications” value (both atabecestat groups, 5 of 31 patients) was 16.1% and the “changes from baseline in clinical laboratory analytes, liver function tests, vital signs, neurologic and physical examinations” value (both studies) was “no clinically significant trends”. For the same compound, the “deaths or TEAEs leading to discontinuation” value (both studies) was “no deaths or TEAEs leading to discontinuation”, the “ECG parameters, mean and median changes over time from predose” value (early AD population) was “no treatment- or dose-related changes” and the “Subjects with any TEAE” value (preclinical AD, 10 mg, N=5) was “^1 (20.0%) n (%)”. The “TEAE: Accidental overdose” value (preclinical AD, 10 mg, N=5) was “^0 n (%)”, the “TEAE: Anxiety” value (preclinical AD, 10 mg, N=5) was “^0 n (%)” and the “TEAE: Bladder cancer” value (preclinical AD, 10 mg, N=5) was “^0 n (%)”. For the same compound, the “TEAE: Conjunctivitis” value (preclinical AD, 10 mg, N=5) was “^0 n (%)”, the “TEAE: Dementia Alzheimer’s type” value (preclinical AD, 10 mg, N=5) was “^0 n (%)” and the “TEAE: Depressed mood” value (preclinical AD, 10 mg, N=5) was “^0 n (%)”. The “TEAE: Dermatitis allergic” value (preclinical AD, 10 mg, N=5) was “^0 n (%)”, the “TEAE: Dizziness” value (preclinical AD, 10 mg, N=5) was “^0 n (%)” and the “TEAE: Eczema vesicular” value (preclinical AD, 10 mg, N=5) was “^0 n (%)”. The “TEAE: Fatigue” value (preclinical AD, 10 mg, N=5) was “^0 n (%)”, the “TEAE: Gastrointestinal disorders” value (preclinical AD, 10 mg, N=5) was “^0 n (%)” and the “TEAE: General disorders and administration site conditions” value (preclinical AD, 10 mg, N=5) was “^0 n (%)”. For the same compound, the “TEAE: Headache” value (preclinical AD, 10 mg, N=5) was “^0 n (%)”, the “TEAE: Hypertension” value (preclinical AD, 10 mg, N=5) was “^1 (20.^0) n (%)” and the “TEAE: Infections and infestations” value (preclinical AD, 10 mg, N=5) was “^0 n (%)”. For the same compound, the “TEAE: Injury, poisoning and procedural complications” value (shortened to “TEAE: Injury”) (preclinical AD, 10 mg, N=5) was “^0 n (%)”, the “TEAE: Insomnia” value (preclinical AD, 10 mg, N=5) was “^0 n (%)” and the “TEAE: Irritability” value (preclinical AD, 10 mg, N=5) was “^0 n (%)”. For the same compound, the “TEAE: Musculoskeletal and connective tissue disorders” value (preclinical AD, 10 mg, N=5) was “^0 n (%)”, the “TEAE: Nasopharyngitis” value (preclinical AD, 10 mg, N=5) was “^0 n (%)” and the “TEAE: Nausea” value (preclinical AD, 10 mg, N=5) was “^0 n (%)”. For the same compound, the “TEAE: Neck pain” value (preclinical AD, 10 mg, N=5) was “^0 n (%)”, the “TEAE: Neoplasms benign, malignant and unspecified” value (preclinical AD, 10 mg, N=5) was “^0 n (%)” and the “TEAE: Nervous system disorders” value (preclinical AD, 10 mg, N=5) was “^0 n (%)”. The “TEAE: Post lumbar puncture syndrome” value (preclinical AD, 10 mg, N=5) was “^0 n (%)”, the “TEAE: Psoriasis” value (preclinical AD, 10 mg, N=5) was “^0 n (%)” and the “TEAE: Psychiatric disorders” value (preclinical AD, 10 mg, N=5) was “^0 n (%)”. The “TEAE: Renal and urinary disorders” value (preclinical AD, 10 mg, N=5) was “^0 n (%)”, the “TEAE: Renal colic” value (preclinical AD, 10 mg, N=5) was “^0 n (%)” and the “TEAE: Reproductive system and breast disorders” value (preclinical AD, 10 mg, N=5) was “^0 n (%)”. The “TEAE: Skin and subcutaneous tissue disorders” value (preclinical AD, 10 mg, N=5) was “^0 n (%)”, the “TEAE: Somnolence” value (preclinical AD, 10 mg, N=5) was “^0 n (%)” and the “TEAE: Syncope” value (preclinical AD, 10 mg, N=5) was “^0 n (%)”. The “TEAE: Urticaria” value (preclinical AD, 10 mg, N=5) was “^0 n (%)”, the “TEAE: Vascular disorders” value (preclinical AD, 10 mg, N=5) was “^1 (20.0) n (%)” and the “TEAE: Vulvovaginal candidiasis” value (preclinical AD, 10 mg, N=5) was “^0 n (%)”. For the same compound, the “TEAE: Vulvovaginal pruritus” value (preclinical AD, 10 mg, N=5) was “^0 n (%)”, the “Subjects with any TEAE” value (preclinical AD, 50 mg, N=6) was “^2 (33.3) n (%)” and the “TEAE: Accidental overdose” value (preclinical AD, 50 mg, N=6) was “^0 n (%)”. The “TEAE: Anxiety” value (preclinical AD, 50 mg, N=6) was “^0 n (%)”, the “TEAE: Bladder cancer” value (preclinical AD, 50 mg, N=6) was “^0 n (%)” and the “TEAE: Conjunctivitis” value (preclinical AD, 50 mg, N=6) was “^0 n (%)”. The “TEAE: Dementia Alzheimer’s type” value (preclinical AD, 50 mg, N=6) was “^0 n (%)”, the “TEAE: Depressed mood” value (preclinical AD, 50 mg, N=6) was “^0 n (%)” and the “TEAE: Dermatitis allergic” value (preclinical AD, 50 mg, N=6) was “^0 n (%)”. The “TEAE: Dizziness” value (preclinical AD, 50 mg, N=6) was “^0 n (%)”, the “TEAE: Eczema vesicular” value (preclinical AD, 50 mg, N=6) was “^0 n (%)” and the “TEAE: Fatigue” value (preclinical AD, 50 mg, N=6) was “^1 (16.7^) n (%)”. For the same compound, the “TEAE: Gastrointestinal disorders” value (preclinical AD, 50 mg, N=6) was “^0 n (%)”, the “TEAE: General disorders and administration site conditions” value (preclinical AD, 50 mg, N=6) was “^1 (16.7) n (%)” and the “TEAE: Headache” value (preclinical AD, 50 mg, N=6) was “^0 n (%)”. The “TEAE: Hypertension” value (preclinical AD, 50 mg, N=6) was “^0 n (%)”, the “TEAE: Infections and infestations” value (preclinical AD, 50 mg, N=6) was “^0 n (%)” and the “TEAE: Injury” value (preclinical AD, 50 mg, N=6) was “^1 (16.7) n (%)”. For the same compound, the “TEAE: Insomnia” value (preclinical AD, 50 mg, N=6) was “^1 (16.^7) n (%)”, the “TEAE: Irritability” value (preclinical AD, 50 mg, N=6) was “^0 n (%)” and the “TEAE: Musculoskeletal and connective tissue disorders” value (preclinical AD, 50 mg, N=6) was “^0 n (%)”. The “TEAE: Nasopharyngitis” value (preclinical AD, 50 mg, N=6) was “^0 n (%)”, the “TEAE: Nausea” value (preclinical AD, 50 mg, N=6) was “^0 n (%)” and the “TEAE: Neck pain” value (preclinical AD, 50 mg, N=6) was “^0 n (%)”. The “TEAE: Neoplasms benign, malignant and unspecified” value (preclinical AD, 50 mg, N=6) was “^0 n (%)”, the “TEAE: Nervous system disorders” value (preclinical AD, 50 mg, N=6) was “^0 n (%)” and the “TEAE: Post lumbar puncture syndrome” value (preclinical AD, 50 mg, N=6) was “^1 (16.7^) n (%)”. The “TEAE: Psoriasis” value (preclinical AD, 50 mg, N=6) was “^1 (16.^7) n (%)”, the “TEAE: Psychiatric disorders” value (preclinical AD, 50 mg, N=6) was “^1 (16.^7) n (%)” and the “TEAE: Renal and urinary disorders” value (preclinical AD, 50 mg, N=6) was “^0 n (%)”. The “TEAE: Renal colic” value (preclinical AD, 50 mg, N=6) was “^0 n (%)”, the “TEAE: Reproductive system and breast disorders” value (preclinical AD, 50 mg, N=6) was “^0 n (%)” and the “TEAE: Skin and subcutaneous tissue disorders” value (preclinical AD, 50 mg, N=6) was “^1 (16.^7) n (%)”. The “TEAE: Somnolence” value (preclinical AD, 50 mg, N=6) was “^0 n (%)”, the “TEAE: Syncope” value (preclinical AD, 50 mg, N=6) was “^0 n (%)” and the “TEAE: Urticaria” value (preclinical AD, 50 mg, N=6) was “^1 (16.^7) n (%)”. For the same compound, the “TEAE: Vascular disorders” value (preclinical AD, 50 mg, N=6) was “^0 n (%)”, the “TEAE: Vulvovaginal candidiasis” value (preclinical AD, 50 mg, N=6) was “^0 n (%)” and the “TEAE: Vulvovaginal pruritus” value (preclinical AD, 50 mg, N=6) was “^0 n (%)”. For the same compound, the “Subjects with any TEAE” value [3] was “^3 (27.3) n (%)”, the “TEAE: Fatigue” value [3] was “^1 (9.1) n (%)” and the “TEAE: General disorders and administration site conditions” value [3] was “^1 (9.1) n (%)”. For the same compound, the “TEAE: Hypertension” value [3] was “^1 (9.1) n (%)”, the “TEAE: Injury” value [3] was “^1 (9.1) n (%)” and the “TEAE: Insomnia” value [3] was “^1 (9.1) n (%)”. For the same compound, the “TEAE: Nervous system disorders” value [3] was “^0 n (%)”, the “TEAE: Post lumbar puncture syndrome” value [3] was “^1 (9.1) n (%)” and the “TEAE: Psoriasis” value [3] was “^1 (9.1) n (%)”. For the same compound, the “TEAE: Psychiatric disorders” value [3] was “^1 (9.1) n (%)”, the “TEAE: Skin and subcutaneous tissue disorders” value [3] was “^1 (9.1) n (%)” and the “TEAE: Somnolence” value [3] was “^0 n (%)”. The “TEAE: Urticaria” value [3] was “^1 (9.1) n (%)” and the “TEAE: Vascular disorders” value [3] was “^1 (9.1) n (%)”.
